Data as given in patent US20260337229A1 (Seattle Children's Hospital (d/b/a Seattle Children's …, priority 2022, published 2026).
Read-outs that look alike come from different tables or passages of the source.

Columns and labels:
[1] = 22-day long-term study in DIO rats (body weight, food and water intake); type: in vivo, male Sprague Dawley rats
Source text: For studies utilizing a DIO rat model, male Sprague Dawley rats (CD-IGS rats, strain 001; approximately 4 weeks of age; 51-75 g) purchased from Charles River Laboratories (Wilmington, MA, USA). These rats were fed a diet of 60% calories from fat (Formula: D12492; Research Diets, Inc., New Brunswick, NJ, USA; 5.21 kcal/g) for 4.5 to 6 months prior to the start of the study to induce obesity. For studies utilizing lean rats, male Sprague Dawley rats (CD-IGS rats, strain 001; 226-250 g) purchased from Charles River Laboratories (Wilmington, MA, USA). All rats had ad libitum access to food and water and were kept on a 12 h light/12 h dark cycle. Animals were individually housed in a temperature (22±1° C.) and humidity (57±4%) controlled room. All body weight measurements were taken just prior to the start of the dark cycle.
(§1) Male Sprague Dawley rats were fed 60% HF diet (D12492; Research Diets, Inc; New Brunswick, NJ; 5.21 kcal/g) for 16 weeks prior to the start of the study. Rats were then singly house in BioDAQ cages (Research Diets, Inc.; New Brunswick, NJ) and allowed to acclimate to their new environment for 10 days. Baseline measures of body weight, food intake and water intake were taken for one week to balance the groups and create feeding pairs. Each group (n=6 animals/group) averaged 714.47±81.6 g at baseline (Table 3).
(§2) Effects of ASK2131 were compared to a vehicle-treated group, OXT-treated group, as well as a pair-fed control group. Three days of baseline measures were taken before subcutaneous treatment administration began on day 4 of the study. Assessments were made to body weight, food intake and water intake. ASK2131 was administered at 50 nmol/kg throughout the entire study period. […] OXT-treated animals were started at 50 nmol/kg dose for two days, followed by 150 nmol/kg, then 300 nmol/kg, until ending at 600 nmol/kg for the remainder of the study.

[2] = Blood parameters after 22-day treatment of DIO rats; type: in vivo, male Sprague Dawley rats; details: 22 days sc, mean ± SEM, OXT n=4
Source text: as §1, §2
Cardiac puncture was used to collect blood for analysis 2 h post final injection. Commercially available enzyme-linked immunosorbent assays (ELISA) were used for quantitative assessment of leptin (cat. #EZRL-83K; MilliporeSigma, Burlington, MA, USA), insulin (cat. #EZRMI-13K; MilliporeSigma, Burlington, MA, USA), and adiponectin (cat. #EZRAPD-62K MilliporeSigma, Burlington, MA, USA). Serum samples were diluted 1:500 for the adiponectin ELISA using the sample diluent provided with the kit. All ELISAs were completed following the manufacturers recommendations. Levels of glucose, cholesterol (total, HDL, and calculated LDL), triglycerides, ALT, and AST were determined in the serum on a Modular P chemistry analyzer (Roche Diagnostics, Risch-Rotkreuz, Switzerland) by the University of Washington Nutrition and Obesity Research Center's Analytic Core (Seattle, WA, USA).

[3] = Dose escalation study in DIO rats; type: in vivo, male DIO Sprague Dawley rats; details: 1200 nmol/kg/d
Source text: Male DIO Sprague Dawley rats (n=4) were fed 60% HF diet (formula: D12492; Research Diets, Inc., New Brunswick, NJ, USA; 5.21 kcal/g) for 16 weeks prior to the start of the study. Rats were changed to being singly housed and allowed to acclimate for at least one week prior to the start of this study. Animals averaged 844.15 Z 99.95 g at baseline. Baseline measures of body weight, food intake, and water intake were taken for 6 days before drug administration began. Doses for the dose escalation study included 1, 2, 5, 10, 20, 50, and 100 nmol/kg. Body weight, food and water intake were assessed just prior to the start of the dark cycle. […] In certain embodiments, the greatest anorectic effect achieved with ASK1476 occurred at the 300 nmol/kg/d dose yielding a ~34% reduction in caloric intake while ASK2131 dosed at 2 nmol/kg/d yielded a ~55% reduction in caloric intake.

[4] = iv, rat; marked [2]; cited from earlier work
[5] = sc, mouse, marked [2], cited from earlier work
[6] = cited from earlier work
[7] = cited from earlier work; remark: listed apart in the source
amygdala activation = details: 24 IU, but not lower (12 IU) or higher (48 IU) doses; in words; cited from earlier work
[8] = intranasal; in words; cited from earlier work
OXT receptors = details: prolonged OXT treatment, in words, cited from earlier work
[9] = in words; cited from earlier work
[10] = peripheral administration; in words; cited from earlier work
[11] = ELISA, 2 h post final injection

For `CC[C@H](C)[C@@H]1NC(=O)[C@H](Cc2ccc(O)cc2)NC(=O)[C@@H](N)CSSC[C@@H](C(=O)N2CCC[C@H]2C(=O)N[C@@H](CC(C)C)C(=O)NCC(N)=O)NC(=O)[C@H](CC(N)=O)NC(=O)[C@H](CCC(N)=O)NC1=O` [OXT], the Post-treatment body weight ([1]; 22 days sc, ASK2131 50 nmol/kg, OXT titrated 50 to 600 nmol/kg, mean ± SEM) was 719 ± 20 g, the “% change in body weight” value ([1]; 22 days sc, ASK2131 50 nmol/kg, OXT titrated 50 to 600 nmol/kg, mean ± SEM, superscripts b: p<0.01, c: p<0.001 vs vehicle, d: p<0.001 vs OXT) was 0.1 ± 1 ^b % and the “reduction in food intake compared to vehicle-treated group” value ([1]; OXT titrated to 600 nmol/kg, 95% CI 0.2550 to 40.59, p=0.0464, in words) was “did not exhibit a significant reduction in food intake”. The “weight loss vs. vehicle” value ([1]; end of treatment, OXT titrated to 600 nmol/kg) was 5%, the “body weight, PMD vs vehicle” value ([1]; treatment day 9, after 8 days, OXT titrated, 95% CI −5.80 to −0.43%, p=0.014) was −3.12% and the “LDL, calculated” value ([2]; Calculated LDL = Cholesterol − (HDL + Triglycerides/5)) was 22 ± 2 mg/dL. The Adiponectin [2, 11] was 60.8 ± 3.9 ng/mL, the Insulin [2, 11] was 7.2 ± 2.1 ng/mL and the Leptin [2, 11] was 54.9 ± 7.9 ng/mL. The ALT ([2]; serum 2 h post final injection) was 40 ± 5 U/L, the AST ([2]; serum 2 h post final injection) was 128 ± 22 U/L and the Glucose ([2]; serum 2 h post final injection) was 203 ± 13 mg/dL. It also gave an HDL ([2]; serum 2 h post final injection) of 25 ± 2 mg/dL, a Triglycerides ([2]; serum 2 h post final injection) of 145 ± 7 mg/dL and a Cholesterol ([2]; serum 2 h post final injection, superscript b: p<0.01 vs vehicle) of 76 ± 3 mg/dL. The “reduction in caloric intake, maximum effect” value [3] was ~ 36%, the CLplasma [4] was 17.1 mL/min/kg and the T1/2 [4] was 7.2 min. The Vd [4] was 0.085 L/kg, the T1/2 [5] was 30 min and the Tmax [5] was 15 min. The “free Cmax” value [5] was 191 nM, the Cmax ([5]; total) was 216 nM and the “weight loss through energy expenditure” value ([6]; in words) was “elicits weight loss through increases in energy expenditure”. For the same molecule, the “change in body weight” value ([6]; one month: two weeks at 0.2 mg/kg then two weeks at 0.4 mg/kg) was 3.3%, the “change in body weight” value ([7]; after a single dose of 1000 μg (1000 nmol)) was 0.01% and the “decrease in food intake” value ([7]; single injection of 1000 μg (1000 nmol)) was 12%. The amygdala activation (amygdala activation) was “significant decrease in amygdala activation”, the “body weight in obese humans” value [8] was “shown to reduce body weight in obese humans” and the “dose response in human trials” value [8] was “U-shaped response”. For the same molecule, the “desensitization of the OXT receptors” value (OXT receptors; in vitro) was “shown to promote desensitization of the OXT receptors in vitro”, the OXTR binding (OXT receptors) was “reductions of OXTR binding” and the blood-brain barrier passage [9] was “does not cross the blood-brain barrier”. The “food intake, energy expenditure, weight gain” value [10] was “reduces food intake, enhances energy expenditure, and prevents or reduces weight gain”.
